Results as given in PubChem BioAssay (NCI).
Several values for one entry are separate records, joined by “and”; a condition that tells them apart may be missing. Equal entries are not always repeated.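 Interpolation was linear, between the two tested concentrations surrounding the appropriate level; five concentrations were tested over 48 hours in 96-well plates. GI50 is the concentration that inhibits growth by half. Definition used: TGI = concentration required for complete inhibition of growth.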 Starred links: 1 amine or outer side, 2 acyl side, 3 side chain; linkers in the order of their positions; H or OH if unused. Positions of bridges follow the written chain, without caps; N, C: chain ends. Non-standard residues stand in square brackets, D forms with d. Residues, ends and D or L forms follow the SMILES beside them. Chains are numbered I, II in the order given. Actinocin(9to1) = Cc1c2oc3c(C)ccc(C(=O)[*:1])c3nc-2c(C(=O)[*:2])c(N)c1=O; NMeY = CN[CH](Cc1ccc(O)cc1)C(=O)O; Sar = CNCC(=O)O

What was measured:
Assay in all cases: NCI tumour cell line growth inhibition, 48 h
LOX IMVI melanoma = test system: LOX IMVI melanoma
RXF 393 renal = test system: RXF 393 renal
OVCAR-4 ovarian = test system: OVCAR-4 ovarian
SW-620 colon = test system: SW-620 colon
HT29 colon = test system: HT29 colon
SK-MEL-2 melanoma = test system: SK-MEL-2 melanoma
SF-539 CNS = test system: SF-539 CNS
786-0 renal = test system: 786-0 renal
IGROV1 ovarian = test system: IGROV1 ovarian
SF-295 CNS = test system: SF-295 CNS
SK-MEL-28 melanoma = test system: SK-MEL-28 melanoma
SN12C renal = test system: SN12C renal

Row | Compound | TGI (LOX IMVI melanoma) | TGI (RXF 393 renal) | TGI (OVCAR-4 ovarian) | TGI (SW-620 colon) | TGI (HT29 colon) | TGI (SK-MEL-2 melanoma) | TGI (SF-539 CNS) | TGI (786-0 renal) | TGI (IGROV1 ovarian) | TGI (SF-295 CNS) | TGI (SK-MEL-28 melanoma) | TGI (SN12C renal) | GI50 (LOX IMVI melanoma) | GI50 (RXF 393 renal) | GI50 (HT29 colon) | GI50 (SF-295 CNS) | GI50 (SK-MEL-28 melanoma) | GI50 (OVCAR-4 ovarian) | GI50 (SF-539 CNS) | GI50 (IGROV1 ovarian)
1 | COC(=O)C1=C(OC(=O)/C(=C/c2ccc(Cl)cc2)c2ccc(Cl)cc2)C(C(=O)OC)[C@@]2(O)[C@@H](C(=O)OC)[C@H](C)C[C@@H]1[C@@H]2C(=O)OC (stereo partly specified) | > 100 µM | > 100 µM | > 100 µM | > 100 µM | > 100 µM | > 100 µM | > 100 µM | > 100 µM | > 100 µM | > 100 µM | > 100 µM | > 100 µM | – | – | – | – | – | – | – | –
2 | CC1(C)OC(C(=O)Nc2cc3c4ccccc4ccc3c3ccccc23)C(C(=O)N2CCCCC2)O1 (stereo unspecified) | 25.3 µM | > 27.7 µM | > 100 µM | > 100 µM | > 100 µM | > 100 µM | > 100 µM | > 100 µM | > 100 µM | > 100 µM | > 100 µM | > 100 µM | – | – | – | – | – | – | – | –
3 | Nc1ccc2c(c1)C(=O)N1CCC[C@H]1C(=O)N2 | > 100 µM | > 100 µM | > 100 µM | > 100 µM | > 100 µM | > 100 µM | > 100 µM | > 100 µM | > 100 µM | > 100 µM | > 100 µM | > 100 µM | – | – | – | – | – | – | – | –
4 | CC1=C(C)CC2C(=O)N(c3cc(C(C)(C)C)ccc3C(C)(C)C)C(=O)C2C1 (stereo unspecified) | > 100 µM | 74.9 µM | > 100 µM | > 100 µM | > 100 µM | > 100 µM | > 100 µM | > 100 µM | > 100 µM | > 100 µM | > 100 µM | > 100 µM | – | – | – | – | – | – | – | –
5 | Cc1c2oc3c(C)ccc(C(=O)NC4C(=O)NC(C(C)C)C(=O)N5CCCC5C(=O)N(C)CC(=O)N(C)C(Cc5ccc(O)cc5)C(=O)OC4C)c3nc-2c(C(=O)NC2C(=O)NC(C(C)C)C(=O)N3CCCC3C(=O)N(C)CC(=O)N(C)C(Cc3ccc(O)cc3)C(=O)OC2C)c(N)c1=O (stereo unspecified) (I: TVP[Sar][NMeY] / II: TVP[Sar][NMeY]; ester I:1-I:C, II:1-II:C; linker I:N-II:N via Actinocin(9to1); configuration not given here) | > 1 µM | 0.307 µM and 0.0871 µM | > 0.301 µM | > 1 µM | 0.377 µM and > 0.412 µM | 0.111 µM and 0.0245 µM | 0.224 µM and 0.152 µM | > 1 µM | > 1 µM | > 1 µM | 0.205 µM and 0.0748 µM | > 1 µM | 0.00436 µM and 0.000966 µM | 0.0635 µM and 0.0229 µM | 0.00859 µM and 0.00267 µM | 0.0438 µM and 0.0157 µM | 0.0248 µM and 0.00701 µM | – | – | –
6 | BrC1=C(Br)C2(SCCS2)[C@H]2C[C@@H]1c1ccccc12 | > 100 µM | > 100 µM | > 100 µM | > 100 µM | > 100 µM | > 100 µM | > 100 µM | > 100 µM | > 100 µM | > 100 µM | > 100 µM | > 100 µM | – | – | – | – | – | – | – | –
7 | NS(=O)(=O)c1ccc(/C=C/c2ccc(O)c(O)c2)cc1 | > 100 µM | > 100 µM | 27.2 µM | > 100 µM | > 100 µM | 62.8 µM | 40.2 µM | > 100 µM | 40.1 µM | 74.3 µM | 78.6 µM | 60.9 µM | 29.9 µM | – | 35.4 µM | – | – | 11.6 µM | 14.2 µM | 4.49 µM
8 | O=c1[nH]nnc2c1sc1ncccc12 | > 100 µM | > 100 µM | > 100 µM | > 100 µM | > 100 µM | > 100 µM | > 100 µM | > 100 µM | > 100 µM | > 100 µM | > 100 µM | > 100 µM | – | – | – | – | – | – | – | –
9 | CCCC(=O)NC(NC1CCCCC1)(C(=O)OCC)C(F)(F)F (stereo unspecified) | > 100 µM | > 100 µM | > 100 µM | > 100 µM | > 100 µM | > 100 µM | > 100 µM | > 100 µM | > 100 µM | > 100 µM | > 100 µM | > 100 µM | – | – | – | – | – | – | – | –
10 | COc1ccc(C2SC(N)=Nc3c2c(C)nn3C(=O)c2ccncc2)cc1OC (stereo unspecified) | > 10 µM | > 10 µM | > 10 µM | > 10 µM | > 10 µM | > 10 µM | > 10 µM | > 10 µM | > 10 µM | > 10 µM | > 10 µM | > 10 µM | – | – | – | – | – | – | – | –
11 | CC1CC(OP(=O)(OCc2ccccc2)OCc2ccccc2)[C@@H](OCc2ccccc2)C(OCc2ccccc2)C1OCc1ccccc1 (stereo partly specified) | > 100 µM | 9.8 µM | > 100 µM | > 100 µM | > 100 µM | > 100 µM | > 100 µM | > 100 µM | > 100 µM | > 100 µM | > 100 µM | > 100 µM | – | – | – | – | – | – | – | –
12 | O=C(/C=C/c1ccccc1)Oc1cccc(O)c1 | > 100 µM | > 100 µM | > 100 µM | 37.9 µM | > 100 µM | > 100 µM | > 100 µM | > 100 µM | 43.6 µM | 34.3 µM | 66.8 µM | > 100 µM | – | – | – | – | – | – | – | –
13 | COC[C@@H](N=CC(C)(C)C)C(C)C | > 100 µM | > 100 µM | > 100 µM | > 100 µM | > 100 µM | > 100 µM | > 100 µM | > 100 µM | > 100 µM | > 100 µM | > 100 µM | > 100 µM | – | – | – | – | – | – | – | –
